SMILES strings stand for the structures.

For series [1], the system named is Akt. As to the kind of experiment: phospho-Akt signaling in BMDMs. In kind it is cell-based, mouse. Here is the method:
The PI3K/Akt and MAPK/Erk signaling pathways regulate many cellular processes including survival, apoptosis, growth, and cytokine production. […] Specifically, BMDMs were treated with indole (1 mM) or DMF control for 18 hours, then stimulated with LPS (10 ug/ml) or CpG (5 uM) for 30 minutes. Cells were stained for phospho-Akt or phospho-Erk and analyzed by flow cytometry.
(§1) The inventors performed a series of assays where bone marrow derived macrophages (BMDMs), bone marrow derived dendritic cells (BMDCs), and splenic dendritic cells (splenic DCs), were exposed to a series of TDMMs, including indole, indole-3-acetate (I3AT), 5-hydroxyindole (5HI), and indole-3-pyruvate (I3P), as well as indole-3-carbinol (I3C; a plant derived compound) to be used for a positive control (1 mM for 24 hours). The BMDMs and BMDCs were stimulated with LPS for 4 hours and assayed at day 7 for expression of various pro-inflammatory cytokines. In a similar assay, the BMDMs and BMDCs were stimulated with LPS or CpG, respectively, for 15 minutes and assayed for pAKT and pERK signaling, which is a reflection of pro-inflammatory response.

The conditions of series [2]: Pinero-Fernandez et al. 2011; cited from earlier work.
Series [3] deals with Th2 cells. As to the kind of experiment: Th2 differentiation in DC-T cell co-culture. Type of series: cell-based, mouse. To be noted: co-culture with DCs conditioned with indole. Here is the method:
FIGS. 19A-19C graphically illustrate that indole-conditioned DCs inhibit Th1, Th2, and Th17 differentiation. Naïve CD4+CD25-T cells from OT-II TCR transgenic mice were isolated by column purification. Naïve T cells were then co-cultured with OVA323-339 peptide-loaded BMDCs for 72 hours in the presence or absence of lineage-skewing cytokines (described in methods). BMDCs were previously treated with indole, RA, or DMF from day 3. For the last 5 hours of culture, T cells were restimulated with PMA and ionomycin in the presence of Golgiplug, followed by intracellular staining. Cytokine production was determined to assess differentiation of Th1 (FIG. 19A), Th2 (FIG. 19B), and Th17 CD4+T (FIG. 19C) cells. Mean of three independent experiments. * indicates p<0.05 for one-way ANOVA followed by Dunnett's post-test.
In order to determine whether the indole-conditioned DC induction of Tregs was specific to this lineage, additional T cell fates were quieried. Activated CD4+T helper cells are typically divided into the subsets Th1, Th2, Th17, and Treg, based on their expression of transcription factors and pattern of cytokine secretion. The antigen-specific co-culture system was used to investigate these remaining traditional T cell lineages with the addition of an endpoint PMA/Ionomycin stimulation to induce cytokine secretion. […]

The test system of series [4] is IL-6. The series is described as follows: IL-6 production in splenic CD11c+ DCs ex vivo. The following applies: indole overnight, LPS or heat-killed S. typhimurium.
Experimental: Cultures were then stained for CD11c and intracellular TNF, IL-6, and IL-12. Analysis was confined to CD11c+ DCs and maximal cytokine production was normalized to solvent control (DMF).
Production of pro-inflammatory cytokines in CD11c+ DCs was assessed via flow cytometry.
All primary cells were cultured in RPMI 1640 supplemented with 2-mercaptoethanol, gentamicin, penicillin, streptomycin, and 10% FCS (all from Life Technologies). […] Stimulation of dendritic cells at the given concentrations of LPS or heat-killed S. typhimurium were performed for 4 hours (DC2.4 and BMDCs) or 6 hours (primary splenic DCs) in the presence of GolgiPlug protein transport inhibitor (BD Biosciences) to measure cytokine production, or for 24 hours (co-stimulatory markers).
Series [5] relates to IL-12. The series is described as follows: IL-12 production in BMDMs, intracellular staining, flow cytometry. In kind it is cell-based, mouse. Here is the method: BMDMs were treated with indole or DMF control for 18 hours or 4 hours, followed by stimulation with LPS (2 ug/ml or 250 ng/ml) for 4 hours in the presence of Golgiplug. BMDMs were then stained for intracellular TNF or IL-12 and analyzed by flow cytometry.
First, pro-inflammatory cytokine production in macrophages was investigated. […] In the DC study described herein, DCs were typically conditioned with indole during their development from bone marrow precursors in order to mimic the proximity of DC progenitor cells to indole in the intestinal microenvironment during development. […] BMDMs were treated for 18 hours with indole, followed by a 4 hour stimulation with either a very high (2 ug/ml) or low (250 ng/ml) dose of LPS.
Additionally, to determine if recently arrived macrophage precursors might also be affected, BMDMs were next treated for just 4 hours with indole, followed by a […] stimulation with the same LPS concentrations.
To address the question of indole and AhR dependence in macrophages, experiments using BMDMs derived from AhR-knockout mice were run alongside wild-type littermate controls. Specifically, flow cytometric analysis of BMDMs was performed on WT or AhR-KO mice and treated with indole or DMF control for 18 hours. BMDMs were stimulated for 4 hours with LPS (50 ng/ml) in the presence of Golgiplug, then stained for intracellular TNF (left panels) and IL-12 (right panels).
as §1
Bone marrow was harvested as described above and cultured at a density of 1×10^6 cells in 10 ml complete media supplemented with 10 ng/ml M-CSF (Peprotech) in 100 mm×15 mm petri dishes. Media with cytokine was replenished on day 3. Adherent and semi-adherent cells were recovered on day 7, plated, and treated with indole prior to downstream experiments.

Take `c1ccc2[nH]ccc2c1` [Indole, indole]: the pAKT entry in series [1] (1 mM TDMM 24 hours, LPS 1 ug/ml 15 minutes) is given as “↓”. Also, the “dampening of pAkt signaling” value in series [1] (indole 1 mM 18 hours, LPS (10 ug/ml) or CpG (5 uM) 30 minutes) is recorded as “approximately 50%”. Moreover, in series [2], the diffusion across membranes result is “freely diffusible across membranes”. Further, the “development of Th2 lineage” value in series [3] was “stark inhibition”. Further, in series [4], the “inhibition of IL-6 production” value was at least 2 fold. For the same molecule, the “reduction of IL-12 production” value in series [5] (BMDMs from WT or AhR-KO mice, 1 mM indole 18 hours, LPS 50 ng/ml 4 hours) is on record as “approximately 2 fold”. For the same molecule, the IL-12 entry in series [5] (BMDMs, 1 mM TDMM 24 hours, LPS 1 ug/ml 4 hours) was “↓↓↓”. Moreover, the “inhibition of IL-12 production” value in series [5] (BMDMs, 1 mM indole 18 hours, LPS 2 ug/ml or 250 ng/ml 4 hours) is about 2 fold.
